The source of these data is patent EP4608400B1, “COMPOUND FOR TREATMENT OF PAIN” (Initiator Pharma A/S, priority 2022, dated 2024).

The structures appear in SMILES notation. Counter-ions that a name gives are not always drawn.

Data set [1] addresses T1, dopamine (DA) reuptake in synaptosomes (Rattus norvegicus, UniProt P23977).
T1 construct: in synaptosomes as described in WO 97/16451 (NeuroSearch A/S); from tissue
The following applies: hydrochloride; reported in US 9,133,184 B1; cited from earlier work.

In data set [2] the target is T2, noradrenaline (NA) reuptake in synaptosomes (Rattus norvegicus, UniProt Q63380).
T2 construct: in synaptosomes as described in WO 97/16451 (NeuroSearch A/S); from tissue
T2 sequence (Q63380 1-617): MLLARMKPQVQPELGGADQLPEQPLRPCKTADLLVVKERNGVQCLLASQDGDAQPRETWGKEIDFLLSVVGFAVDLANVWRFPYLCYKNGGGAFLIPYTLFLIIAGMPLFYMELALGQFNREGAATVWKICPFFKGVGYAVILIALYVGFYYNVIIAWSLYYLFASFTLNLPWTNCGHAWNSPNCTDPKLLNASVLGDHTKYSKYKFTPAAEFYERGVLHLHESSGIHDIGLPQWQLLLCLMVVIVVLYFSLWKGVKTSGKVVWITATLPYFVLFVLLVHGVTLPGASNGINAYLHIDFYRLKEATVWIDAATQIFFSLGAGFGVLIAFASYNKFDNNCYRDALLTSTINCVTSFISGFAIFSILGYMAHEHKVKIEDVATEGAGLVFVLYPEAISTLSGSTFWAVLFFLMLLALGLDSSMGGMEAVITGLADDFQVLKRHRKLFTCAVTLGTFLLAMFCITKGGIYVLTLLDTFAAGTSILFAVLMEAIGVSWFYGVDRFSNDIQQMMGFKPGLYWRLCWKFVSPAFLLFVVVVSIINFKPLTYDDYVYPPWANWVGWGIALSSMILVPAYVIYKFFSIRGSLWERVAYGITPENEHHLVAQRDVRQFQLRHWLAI
The following applies: hydrochloride; reported in US 9,133,184 B1; cited from earlier work.

Data set [3] concerns intradermal capsaicin model. As to the kind of experiment: Phase I crossover study, intradermal capsaicin model: pharmacodynamics. The format is in vivo, human. An excerpt: Participants. The volunteers were males aged 18 to 55 years with a body mass index (BMI) of 18 to 30 kg/m2. They were healthy as determined by a responsible physician, based on a medical evaluation including medical history, physical examination, concomitant medication, vital signs, 12-lead ECG, and clinical laboratory evaluations. The participants must have been in good general health with a skin type compatible with the measures and without significant skin allergies, pigmentary disorders or any active dermatological conditions. […] The participants provided written informed consent, which included compliance with the requirements and restrictions listed in the consent form, including the use of a condom during the trial and for 3 months after their final dose of trial medication, if their partner was a woman of childbearing potential.
Clinical and laboratory data. Prior to and 15, 30, 60, 90 and 120 minutes after administration of capsaicin, measurements of pain, hyperalgesia, allodynia and AF were performed. At 2 hours post-capsaicin injection, subjects completed a quantitative sensory testing (QST) battery at two sites on the volar surface of each forearm. One site was the most recent capsaicin injection site, and the other was at an equivalent point on the opposite forearm. […] There was a minimum washout period of 5 days between treatment periods.
Reconstitution was performed by a Pharmacist at the clinical site prior to dosing.
(§1) In order to maintain the blind, a double dummy approach was used.
Subjects were randomised to receive a single administration of a treatment combination during each treatment period. All subjects received each treatment combination once only.
Evaluation methods: Pharmacodynamics was assessed through pain measurements (response to ID injection of capsaicin, measurement of pain using a visual analogue scale, area and pain score of hyperalgesia, area and pain score of allodynia, and AF) and the ID capsaicin model. Subjects also completed a QST battery at two sites on the volar surface of either forearm. The QST battery included the following tests: thermal detection and pain thresholds, mechanical detection and pain thresholds, stimulus/response functions, wind-up ratio and pressure pain threshold.
For measurement of pain, a visual analogue scale (VAS) was used. The VAS consisted of a 100 mm line, with 0 representing "no pain" and 100 representing "worst pain imaginable". Subjects were asked to mark the VAS using a single vertical stroke at the point they considered to appropriately reflect their level of pain from the injection of capsaicin (not general pain). A new VAS was provided for each time point and subjects were not allowed to see their previous VAS responses. The VAS was scored by measuring from the left-hand end of the scale to the point where the subject had marked the line, and the distance in mm was recorded.
Response to pain was also assessed by a numeric rating scale (NRS). For example, by using an 11-point numeric rating scale ranging from 0 ("no pain") to 10 ("worst possible pain") and asking the subject to rate their pain. A NRS scale of 0 to 100 was also used in some assesments.
The thermal tests were performed using a thermode probe (Medoc). Cold and warm detection thresholds were measured first, then cold pain and heat pain thresholds were determined. The mean threshold temperature of 3 consecutive measurements was calculated. All thresholds were obtained with ramped stimuli (1°C/sec) that were terminated when the subject pressed a button. For thermal detection thresholds the ramp back to baseline was 1°C/sec, while for thermal pain thresholds this ramp was chosen at maximum device capacity resulting in approximately a nominal 5°C/sec.
The mechanical detection threshold was measured with a standardised set of modified von Frey nylons that exerted forces upon bending between 0.25 and 512 mN graded by a factor of 2 (1 to 2 seconds contact time). […]

A short description of data set [4]: Phase I crossover study, intradermal capsaicin model: safety evaluation (TEAEs). The format is in vivo, human. The conditions noted are these: 300 mg pregabalin. How it is done:
as §1
Safety was assessed through AE reporting, 12-lead ECG, vital signs, physical examinations and clinical laboratory evaluations. Pharmacokinetics was assessed by blood sampling.

T1 sequence (P23977 whole entry): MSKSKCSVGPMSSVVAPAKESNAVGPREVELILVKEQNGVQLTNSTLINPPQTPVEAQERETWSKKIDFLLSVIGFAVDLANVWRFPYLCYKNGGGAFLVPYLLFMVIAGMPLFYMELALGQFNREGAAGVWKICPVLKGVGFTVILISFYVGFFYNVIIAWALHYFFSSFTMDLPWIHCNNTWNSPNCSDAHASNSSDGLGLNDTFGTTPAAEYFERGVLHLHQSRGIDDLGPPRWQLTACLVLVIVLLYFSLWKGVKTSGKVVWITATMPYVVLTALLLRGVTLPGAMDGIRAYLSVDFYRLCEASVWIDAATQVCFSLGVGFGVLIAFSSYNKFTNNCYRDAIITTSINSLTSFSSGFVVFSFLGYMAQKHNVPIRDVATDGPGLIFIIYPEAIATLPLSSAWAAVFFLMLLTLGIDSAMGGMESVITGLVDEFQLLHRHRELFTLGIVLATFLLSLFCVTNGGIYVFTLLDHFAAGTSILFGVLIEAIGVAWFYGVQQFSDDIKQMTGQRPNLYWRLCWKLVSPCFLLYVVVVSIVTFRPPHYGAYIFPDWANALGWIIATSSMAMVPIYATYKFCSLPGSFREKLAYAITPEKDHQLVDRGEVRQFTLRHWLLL

As usually defined, the IC50 is the concentration that inhibits the measured activity by half. Turning to `COc1cc2ccc(O[C@@H]3C[C@H]4CC[C@@H](C3)N4)cc2oc1=O` [compound of formula (I) hydrochloride, exo-7-[(8-azabicyclo[3.2.1]octan-3-yl)oxy]-3-methoxy-chromen-2-one hydrochloride], the IC50 in data set [1] was 70 nM; in data set [2] it was 3.8 nM.
For the molecule `CC(C)C[C@H](CN)CC(=O)O` [pregabalin, reference compound], in data set [3] (5 mg and 10 mg IP2015, 300 mg pregabalin, all post-capsaicin injection timepoints), the “adjusted mean pain score of hyperalgesia compared to placebo” value was “lower”. Moreover, the “average decrease in hyperalgesic area across all timepoints compared to placebo” value in data set [3] (300 mg pregabalin) is 7.8 cm^2. In addition, the “Pain Score of Brush-evoked Allodynia Using an NRS, Adjusted Mean (MMRM)” value in data set [3] (300 mg pregabalin capsule, overall, all timepoints, N=24, placebo 2.0) amounted to 1.5. Further, the “Subjective Rating of Pain, Adjusted Mean (MMRM)” value in data set [3] (300 mg pregabalin capsule, overall, all timepoints, N=24, placebo 17.1) worked out at 14.4 mm. For the same molecule, the “decrease of subjective rating of pain compared to placebo” value (from here on “decrease of subjective rating of pain”) in data set [3] (300 mg pregabalin, 15 min post capsaicin) came to 1.5 mm. In data set [3] (300 mg pregabalin, 30 min post capsaicin), the “decrease of subjective rating of pain” value is on record as 3.8 mm. Also, in data set [3] (300 mg pregabalin, 60 min post capsaicin), the “decrease of subjective rating of pain” value was determined as 4.4 mm. In addition, the “overall increase in warm detection threshold between test and control areas (QST)” value in data set [3] (300 mg pregabalin, p = 0.063, post-hoc analysis) is “close to significance”. Moreover, in data set [4], the “incidence of TEAEs (share of subjects)” value is on record as 79.2%, the “moderate TEAE dizziness” value amounted to 1 subject, the “moderate TEAE mood altered” value was found to be 1 subject and the “number of TEAEs reported” value is reported as 28 events. Also, in data set [4], the “subjects reporting TEAEs” value was 19 subjects.
